Experimental data taken from patent US20120010272A1, “RNA Interference Mediated Inhibition of Apoptosis Signal-Regulating Kinase 1 (ASK1) Gene Expression Using Short Interfering Nucleic Acid (siNA)” (Merck Sharp & Dohme Corp., priority 2009, published 2012).
[invAb] = inverted abasic unit; d = 2'-deoxy (DNA); m = 2'-O-methyl; r = 2'-OH (RNA); f = 2'-fluoro

How the values were obtained:
ASK1 mRNA [1] = test: ASK1 mRNA knock-down by siNA in human A549 cells (RNAiMax transfection, Taqman RT-PCR); assay type: cell-based; details: 10 nM siNA, 24 hrs post-transfection, vs non-targeting control, GAPDH-normalized, mean ± S.D., two experiments
Description: A549 (human; ATCC cat #CCL-185): Cells were cultured at 37° C. in the presence of 5% CO2 and grown in Ham's F12K medium with 2 mM L-glutamine adjusted to contain 1.5 g/L sodium bicarbonate and supplemented with fetal bovine serum at a final concentration of 10%, 100 μg/mL of streptomycin, and 100 U/mL penicillin.
(§1) Cells were plated in all wells of a tissue-culture treated, 96-well plate at a final count of 5000 cells/well (A549 cell line) and 3,500 cells/well (Hepal-6 cell line) in 100 μL of the appropriate culture media. The cells were cultured for 24 hours after plating at 37° C. in the presence of 5% CO2.
(§2) After 24 hours, complexes containing siNA and RNAiMax were created as follows: A solution of RNAiMax diluted 33-fold in OPTI-MEM was prepared. In parallel, solutions of the siNAs for testing were prepared to a final concentration of 120 nM in OPTI-MEM. After incubation of RNAiMax/OPTI-MEM solution at room temperature for 5 min, an equal volume of the siRNA solution and the RNAiMax solution were added together for each of the siNAs.
(§3) This solution was incubated at room temperature for 20 minutes. After incubation, 20 uL of the solution was added to each of the relevant wells. The final concentration of siNA in each well was 10 nM and the final volume of RNAiMax in each well was 0.3 ul.
(§4) The time of incubation with the RNAiMax-siNA complexes was 24 hours and there was no change in media between transfection and harvesting, unless otherwise indicated.
(§5) RNA was extracted from a 96-well plate using the TaqMan® Gene Expression Cells-to-CT™ Kit (Cat #4399002) with a modified protocol. Briefly, a 60 uL (1 plate) or 110 uL (2 plates) of the Lysis Solution with DNase I was dispensed into each well of the Lysis Buffer Plate (twin.tec full skirt plate). The lysis buffer and stop plates were stored at 4° C. until the cells were washed.
(§6) The plate was spun at 1100 rpm for 5 minutes. The culture medium was aspirated and discarded from the wells of the culture plate. The lysis was performed automatically using a BioMek FX instrument and method. After the Biomek method was completed, the lysis plate was incubated for 2 min. at room temperature. The lysis plate can be stored for 2 hours at 4° C., or at −20° C. or −80° C. for two months.
(§7) Each well of the reverse transcription plate required 10 uL of 2× reverse transcriptase Buffer, 1 uL of 20× reverse transcription enzyme and 2 uL of nuclease-free water. The reverse transcription master mix was prepared by mixing 2× reverse transcription buffer, 20× reverse transcription enzyme mix, and nuclease-free water. 13 uL of the reverse transcription master mix was dispensed into each well of the reverse transcription plate (semi-skirted). A separate reverse transcription plate was prepared for each cell plate. The plate was loaded onto a Biomek NX or Biomek FX Dual-96 and the Biomek method was run. The program is programmed to automatically added 7 uL of lysate from the cell lysis procedure described above into each well of the reverse transcription plate. The plate is sealed and spun on a centrifuge (1000 rpm for 30 seconds) to settle the contents to the bottom of the reverse transcription plate. The plate is placed in a thermocycler at 37° C. for 60 min, 95° C. for 5 min, and 4° C. until the plate is removed from the thermocycler. Upon removal, if not used immediately, the plate was frozen at −20° C.
(§8) A series of probes and primers were used to detect the various mRNA transcripts of the genes of ASK1, ASK2, and GAPDH in human cell lines and ASK1 and GAPDH in mouse cell lines. All Taqman probes and primers for the experiments were supplied as pre-validated sets by ABI (see Table 2).
(§9) The assays were performed on an ABI 7900 instrument, according to the manufacturer's instructions. A TaqMan Gene Expression Master Mix (provided in the Cells-to-CT™, Applied Biosystems, Cat #4399002) was used. […]

ASK1 mRNA [2] = test: ASK1 mRNA knock-down by siNA in mouse Hepa1-6 cells (RNAiMax transfection, Taqman RT-PCR); assay type: cell-based; details: 10 nM siNA, 24 hrs post-transfection, vs non-targeting control, GAPDH-normalized, mean ± S.D., two experiments
Description: Hepal-6 (murine; ATCC cat #CRL-1830): Cells were cultured at 37° C. in the presence of 5% CO2 and grown in Dulbecco's modified Eagle's medium (DMEM) with 4 mM L-glutamine adjusted to contain 1.5 g/L sodium bicarbonate and 4.5 g/L glucose and supplemented with 10% of fetal bovine serum, 100 μg/mL of streptomycin, and 100 U/mL penicillin.
as §1, §2, §3, §4, §5, §6, §7, §8, §9

25374-DC: siNA duplex, sense B GcAcuGGGAAcuAcAccuu TTB, antisense AAGGuGuAGuucccAGuGcUU (SEQ ID NO: 29/30), human ASK1 target site 978 (sense GCACUGGGAACUACACCUUTT; antisense AAGGUGUAGUUCCCAGUGCUU; chemistry not fully specified)
% KD Human (ASK1 mRNA [1]): 19 ± 4% | % KD Mouse (ASK1 mRNA [2]): 43 ± 12%

25375-DC: siNA duplex, sense B GGAuGAAAAuAGAAAccAA TTB, antisense UUGGuuucuAuuuucAuccUU (SEQ ID NO: 31/32), human ASK1 target site 4101 (sense GGAUGAAAAUAGAAACCAATT; antisense UUGGUUUCUAUUUUCAUCCUU; chemistry not fully specified)
% KD Human (ASK1 mRNA [1]): 76 ± 6% | % KD Mouse (ASK1 mRNA [2]): 6 ± 13%

25377-DC: siNA duplex, sense B GGAAGAccAAGAcAAAAuu TTB, antisense AAUuuuGucuuGGucuuccUU (SEQ ID NO: 35/36), human ASK1 target site 3538 (sense GGAAGACCAAGACAAAAUUTT; antisense AAUUUUGUCUUGGUCUUCCUU; chemistry not fully specified)
% KD Human (ASK1 mRNA [1]): 80 ± 3% | % KD Mouse (ASK1 mRNA [2]): 10 ± 2%

25378-DC: siNA duplex, sense B cGGAAGAccAAGAcAAAAu TTB, antisense AUUuuGucuuGGucuuccGUU (SEQ ID NO: 37/38), human ASK1 target site 3537 (sense CGGAAGACCAAGACAAAAUTT; antisense AUUUUGUCUUGGUCUUCCGUU; chemistry not fully specified)
% KD Human (ASK1 mRNA [1]): 79 ± 5% | % KD Mouse (ASK1 mRNA [2]): 34 ± 2%

25380-DC: siNA duplex, sense B GAuGGAAAuucuAAAAAuu TTB, antisense AAUuuuuAGAAuuuccAuCUU (SEQ ID NO: 41/42), human ASK1 target site 4508 (sense GAUGGAAAUUCUAAAAAUUTT; antisense AAUUUUUAGAAUUUCCAUCUU; chemistry not fully specified)
% KD Human (ASK1 mRNA [1]): 91 ± 0% | % KD Mouse (ASK1 mRNA [2]): −7 ± 11%

25381-DC: siNA duplex, sense B GcGAGGcccuGcAGAGcuu TTB, antisense AAGcucuGcAGGGccucGcUU (SEQ ID NO: 43/44), human ASK1 target site 690 (sense GCGAGGCCCUGCAGAGCUUTT; antisense AAGCUCUGCAGGGCCUCGCUU; chemistry not fully specified)
% KD Human (ASK1 mRNA [1]): 70 ± 2% | % KD Mouse (ASK1 mRNA [2]): 45 ± 2%

25382-DC: siNA duplex, sense B ccAGAAcuAAGGccAcAuu TTB, antisense AAUGuGGccuuAGuucuGGUU (SEQ ID NO: 45/46), human ASK1 target site 3875 (sense CCAGAACUAAGGCCACAUUTT; antisense AAUGUGGCCUUAGUUCUGGUU; chemistry not fully specified)
% KD Human (ASK1 mRNA [1]): 20 ± 4% | % KD Mouse (ASK1 mRNA [2]): −26 ± 10%

25383-DC: siNA duplex, sense B cuGcuGAucAAGAAGAcuu TTB, antisense AAGUCuucuuGAucAGcAGUU (SEQ ID NO: 47/48), human ASK1 target site 3918 (sense CUGCUGAUCAAGAAGACUUTT; antisense AAGUCUUCUUGAUCAGCAGUU; chemistry not fully specified)
% KD Human (ASK1 mRNA [1]): 68 ± 7% | % KD Mouse (ASK1 mRNA [2]): 1 ± 3%

25384-DC: siNA duplex, sense B GGAAcAGccuucAAAucAA TTB, antisense UUGAuuuGAAGGcuGuuccUU (SEQ ID NO: 49/50), human ASK1 target site 3958 (sense GGAACAGCCUUCAAAUCAATT; antisense UUGAUUUGAAGGCUGUUCCUU; chemistry not fully specified)
% KD Human (ASK1 mRNA [1]): 82 ± 1% | % KD Mouse (ASK1 mRNA [2]): 61 ± 0%

25386-DC: siNA duplex, sense B GAGcAAccAAGucAGAAuu TTB, antisense AAUucuGacuuGGuuGcucUU (SEQ ID NO: 53/54), human ASK1 target site 2461 (sense GAGCAACCAAGUCAGAAUUTT; antisense AAUUCUGACUUGGUUGCUCUU; inverted abasic end caps, TT overhang, chemistry not fully specified)
% KD Human (ASK1 mRNA [1]): 80 ± 1% | % KD Mouse (ASK1 mRNA [2]): 53 ± 1%

25388-DC: siNA duplex, sense B GGuAGAGAcuuuAGAAAAA TTB, antisense UUUuucuAAAGucucuAccUU (SEQ ID NO: 57/58), human ASK1 target site 1360 (sense GGUAGAGACUUUAGAAAAATT; antisense UUUUUCUAAAGUCUCUACCUU; sense: sugars from the 5' end d2 f1 d5 f4 d9, [invAb] at 5' end, 3' end, backbone not given here; antisense: sugars from the 5' end rrrffffmmmmfffffmffmm, backbone not given here)
% KD Human (ASK1 mRNA [1]): 89 ± 4% | % KD Mouse (ASK1 mRNA [2]): 32 ± 5%

25390-DC: siNA duplex, sense B GGcuGAAGAuuAuAcAcuA TTB, antisense UAGuGuAuAAucuucAGccUU (SEQ ID NO: 61/62), human ASK1 target site 4354 (sense GGCUGAAGAUUAUACACUATT; antisense UAGUGUAUAAUCUUCAGCCUU; chemistry not fully specified)
% KD Human (ASK1 mRNA [1]): 93 ± 1% | % KD Mouse (ASK1 mRNA [2]): −18 ± 14%

25391-DC: siNA duplex, sense B cAGAGGccAAGGcAuucAu TTB, antisense AUGAAuGccuuGGccucuGUU (SEQ ID NO: 63/64), human ASK1 target site 3087 (sense CAGAGGCCAAGGCAUUCAUTT; antisense AUGAAUGCCUUGGCCUCUGUU; chemistry not fully specified)
% KD Human (ASK1 mRNA [1]): 11 ± 38% | % KD Mouse (ASK1 mRNA [2]): −3 ± 4%

25392-DC: siNA duplex, sense B cAcuGAccGAAAAAucAuA TTB, antisense UAUGAuuuuucGGucAGuGUU (SEQ ID NO: 65/66), human ASK1 target site 3661 (sense CACUGACCGAAAAAUCAUATT; antisense UAUGAUUUUUCGGUCAGUGUU; chemistry not fully specified)
% KD Human (ASK1 mRNA [1]): 67 ± 6% | % KD Mouse (ASK1 mRNA [2]): 63 ± 1%

25393-DC: siNA duplex, sense B GGuucAAAAAGGcAuuuGA TTB, antisense UCAAAuGccuuuuuGAAccUU (SEQ ID NO: 67/68), human ASK1 target site 1614 (sense GGUUCAAAAAGGCAUUUGATT; antisense UCAAAUGCCUUUUUGAACCUU; chemistry not fully specified)
% KD Human (ASK1 mRNA [1]): 88 ± 5% | % KD Mouse (ASK1 mRNA [2]): 77 ± 2%

25394-DC: siNA duplex, sense B uucGGAAucAuAAcAucAA TTB, antisense UUGAuGuuAuGAuuccGAAUU (SEQ ID NO: 69/70), human ASK1 target site 3786 (sense UUCGGAAUCAUAACAUCAATT; antisense UUGAUGUUAUGAUUCCGAAUU; chemistry not fully specified)
% KD Human (ASK1 mRNA [1]): 76 ± 8% | % KD Mouse (ASK1 mRNA [2]): 60 ± 6%

25395-DC: siNA duplex, sense B cuGAuGAcAAGAAAGGuAu TTB, antisense AUAccuuucuuGucAucAGUU (SEQ ID NO: 71/72), human ASK1 target site 2139 (sense CUGAUGACAAGAAAGGUAUTT; antisense AUACCUUUCUUGUCAUCAGUU; chemistry not fully specified)
% KD Human (ASK1 mRNA [1]): 32 ± 12% | % KD Mouse (ASK1 mRNA [2]): 6 ± 15%
